In the experiment the test system is mice with constipation. The experiment is described as follows: Loperamide constipation model: fecal water content and first black stool defecation time. Type of experiment: in vivo, BALB/c mice. The note with it: loperamide 10 mg/kgBW constipation, vs model group.

Text: 40 SPF male BALB/c mice (20-25 g) were randomly divided into 5 groups: a blank control group, a constipation model control group, a Lactobacillus fermentum CCFM1051 intervention group, a Lactobacillus plantarum control group and a phenolphthalein treatment group with 10 mice in each group. The freeze-dried Lactobacillus fermentum CCFM1051 powder was resuspended in skim milk powder to prepare a bacterial suspension with a concentration of 4.0×10^9 CFU/mL. […] The fecal water content was calculated by using the following formula: Fecal water content (%)=(wet weight of feces−dry weight of feces)/wet weight of feces×100. On the morning of the 17th day, the mice in the blank control group were gavaged with normal saline, the mice in the other groups were gavaged with loperamide, after the gavage for 1 h, all the mice were gavaged with 0.25 mL of an activated carbon arabic gum aqueous solution, each mouse was separately placed in a clean stainless steel cage covered with absorbent paper, time (min) from start of the gavage with the activated carbon to defecation of first black stool was recorded as first black stool defecation time to evaluate an effect of the Lactobacillus fermentum CCFM1051 on constipation of the mice, and during the period, the mice ate and drank freely.

In the case of `O=C1OC(c2ccc(O)cc2)(c2ccc(O)cc2)c2ccccc21` [phenolphthalein], the fecal water content result is recorded as “extremely significantly increased”. Moreover, the “first black stool defecation time” value (activated carbon gavage) was “significantly shortened”.

These data come from patent US12364722B2, “Multifunctional lactobacillus capable of relieving PFOA toxic effects and application thereof” (priority 2019, dated 2025).
